SMILES strings stand for the structures. Where “and” joins values, the source holds several entries; their conditions need not be identical. Equal values may be shown once. Read-outs that look alike come from different tables or passages of the source. Where a SMILES comes first, the peptide text is derived from it. Bridges are numbered along the chain shown (N, C = ends). [ ]: non-standard residue; d: D form. Trp(1-Me) = Cn1cc(C[C@H](N)C(=O)O)c2ccccc21; Bta = N[C@@H](Cc1csc2ccccc12)C(=O)O; Nva(3-Et) = CCC(CC)[C@H](N)C(=O)O; NMeI = CC[C@H](C)[C@H](NC)C(=O)O; aIle = CC[C@@H](C)[C@H](N)C(=O)O; Sar = CNCC(=O)O

For experiment [1], the target named is T1, human C3b (Homo sapiens, UniProt P01024).
T1 construct: purchased Complement Technology, Tyler, TX, USA
T1 sequence (P01024 23-667 limits assumed): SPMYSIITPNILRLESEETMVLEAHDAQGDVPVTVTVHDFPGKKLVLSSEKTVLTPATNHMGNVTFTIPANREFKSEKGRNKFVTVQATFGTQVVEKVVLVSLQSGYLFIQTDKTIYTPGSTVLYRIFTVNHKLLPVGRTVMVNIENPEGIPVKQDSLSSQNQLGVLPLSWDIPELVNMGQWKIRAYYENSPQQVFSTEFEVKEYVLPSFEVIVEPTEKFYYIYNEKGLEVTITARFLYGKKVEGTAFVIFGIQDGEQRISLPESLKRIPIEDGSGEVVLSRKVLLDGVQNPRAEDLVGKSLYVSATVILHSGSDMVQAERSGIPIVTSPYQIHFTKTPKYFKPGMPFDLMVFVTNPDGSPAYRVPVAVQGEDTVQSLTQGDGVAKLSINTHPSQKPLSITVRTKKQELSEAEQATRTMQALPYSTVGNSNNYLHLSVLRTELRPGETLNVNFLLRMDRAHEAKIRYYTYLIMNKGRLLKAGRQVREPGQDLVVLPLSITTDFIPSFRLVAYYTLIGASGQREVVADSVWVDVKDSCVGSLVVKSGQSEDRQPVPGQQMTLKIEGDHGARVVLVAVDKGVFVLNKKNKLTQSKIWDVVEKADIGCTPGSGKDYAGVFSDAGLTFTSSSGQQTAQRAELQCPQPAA
T1 sequence (P01024 749-1663 partner limits assumed): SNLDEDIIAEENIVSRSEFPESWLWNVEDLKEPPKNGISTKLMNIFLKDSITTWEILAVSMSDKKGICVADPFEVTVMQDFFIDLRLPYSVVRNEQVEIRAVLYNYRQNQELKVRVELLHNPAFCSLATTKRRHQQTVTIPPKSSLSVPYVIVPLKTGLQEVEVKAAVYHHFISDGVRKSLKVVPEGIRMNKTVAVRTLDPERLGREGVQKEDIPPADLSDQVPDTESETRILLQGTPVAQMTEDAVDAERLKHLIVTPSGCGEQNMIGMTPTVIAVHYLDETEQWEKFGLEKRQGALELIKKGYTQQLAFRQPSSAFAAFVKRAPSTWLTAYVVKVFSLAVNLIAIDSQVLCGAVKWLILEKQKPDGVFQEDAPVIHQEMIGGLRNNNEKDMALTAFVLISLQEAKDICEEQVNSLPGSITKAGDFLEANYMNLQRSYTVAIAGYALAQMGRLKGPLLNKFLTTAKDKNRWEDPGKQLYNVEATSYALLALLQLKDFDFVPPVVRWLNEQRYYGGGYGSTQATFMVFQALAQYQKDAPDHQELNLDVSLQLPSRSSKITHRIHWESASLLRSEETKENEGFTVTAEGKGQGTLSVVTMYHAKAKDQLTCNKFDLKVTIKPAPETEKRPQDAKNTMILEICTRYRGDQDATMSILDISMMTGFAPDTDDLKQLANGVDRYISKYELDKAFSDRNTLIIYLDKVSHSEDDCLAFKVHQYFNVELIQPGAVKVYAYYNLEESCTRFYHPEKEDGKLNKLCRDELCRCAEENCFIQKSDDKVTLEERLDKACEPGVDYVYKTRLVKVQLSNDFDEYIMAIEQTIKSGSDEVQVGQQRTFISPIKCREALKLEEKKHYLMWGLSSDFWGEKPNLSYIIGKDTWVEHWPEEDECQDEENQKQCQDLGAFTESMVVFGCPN
As to the kind of experiment: SPR kinetic binding to immobilized human C3b. The settings on record: for koff: read-out: dissociation rate k d. On the procedure:
Experiments were conducted at 25 °C in HBST buffer (10 mM HEPES, 150 mM NaCl, and 0.05% Tween-20, pH 7.4; XanTec bioanalytics). Human C3b (Complement Technology, Tyler, TX, USA) was immobilized via amine-reactive coupling. […] Individual peptide samples were injected for 120 s, followed by a 180 s dissociation phase. […] Signals from the reference cell and buffer blank injections were subtracted within each dilution series to correct for buffer effects and injection artifacts. Data were fitted to a Langmuir 1:1 binding model to calculate association (k a) and dissociation (k d) rate constants, and the equilibration constant K D is calculated based on the equation: K D = k d/k a. In the case of Cp40 derivatives and Cp60, a single-cycle approach was used for kinetic analysis by injecting 5 increasing concentrations of each compound (0.5-40 nM) consecutively without a regeneration period in between injections. Individual injections within a cycle were 120 s long with a 5 min dissociation phase between injections. […] Analog Cp40 was included in each experimental series as a reference and internal control. Signals from the reference cell and buffer blank injections were subtracted to correct for buffer effects and injection artifacts. Kinetic data were processed in BiaEvaluation (Cytiva) using single-cycle evaluation by global fitting each data set to a Langmuir 1:1 binding model. The reported kinetic parameters (Tables and ) indicate the mean values and standard deviations of three independent experiments. SPR sensorgrams are provided in the Supporting Information.
Background: In SPR one partner is held on a chip, and binding of the other changes the refractive index at the surface.

Experiment [2] has as its system classical pathway complement activation. As to the kind of experiment: Classical pathway (CP) complement activation ELISA in normal human serum. Type of experiment: biochemical. Here is the method:
The inhibitory activity of selected peptides in preventing pathway-specific complement activation was evaluated using ELISA as previously described. All assays used normal human serum (NHS), pooled from five unrelated, anonymized healthy donors, obtained with informed consent according to the local ethics committee, and following the guidelines of the Declaration of Helsinki (Blutspendezentrum Basel, Switzerland). To assess classical pathway activity, flat-bottom MaxiSorp 96-well plates (Thermo Fisher) were coated overnight at room temperature with 33 μg/mL IgM (Sigma) in a 0.1 M sodium carbonate buffer. Plates were washed 5 times with phosphate-buffered saline (Dubleccòs, Bioconcept) supplemented with 0.05% Tween-20 (PBS-T). Serial dilutions of peptides were prepared in 1% (v/v) NHS using HBBT++ assay buffer (10 mM HEPES, 150 mM NaCl, pH 7.4, 0.5% BSA, 0.15 mM CaCl2, 0.5 mM MgCl2, 0.1% Tween-20), with samples diluted in 1% (v/v) NHS. Negative controls included each inhibitor in assay buffer alone, assay buffer only, and 1% (v/v) NHS with 10 mM EDTA. HBBT++ with 1% (v/v) pooled NHS served as the 100%-control. After incubating for 1 h at 37 °C and shaking at 700 rpm, plates were washed 5 times with PBS-T. Next, 100 μL of biotinylated monoclonal mouse antihuman TCC antibody (1:1000, Hycult, clone: aE11) to detect terminal complement complexes was added to each well, followed by 1 h incubation at room temperature while shaking. After another 5 washes with PBS-T, 100 μL of HRP-conjugated NeutrAvidin (1:10,000, Invitrogen) was added to each well and incubated for 20 min at room temperature while shaking. Plates were washed 5 more times with PBS-T before adding 100 μL of 1-Step Turbo TMB-ELISA solution (Thermo Scientific) to each well. The reaction was allowed to develop until a light blue color appeared, and then stopped with 100 μL of 2 M sulfuric acid. Colorimetric detection was performed at 450 nm by using a plate reader (Synergy HT, Biotek). All assays were conducted in triplicate and normalized against 100% (no inhibitor, 1% (v/v) serum in buffer) and 0% (1% (v/v) serum in EDTA buffer) controls. In the cases of Cp60 and Cp40, 5% (v/v) NHS was used instead of 1% (v/v) NHS in some assays. Inhibition curves were fitted using nonlinear regression to a normalized variable slope model in Prism (v9-10, GraphPad).

[3] abbreviates: SPR screening at 2 and 1 μM, series up to 16 μM, read-out: affinity hC3b (class symbol N.B./W.B.).
Setting [4] is: SPR, 1:1 Langmuir fit, average of 3 independent experiments, SD in brackets.
[5] abbreviates: SPR, 1:1 Langmuir fit, average of 3 independent experiments, SD in brackets, read-out: K D, affinity hC3b.

In the case of `CC[C@H](C)[C@H](NC(C)=O)C(=O)N[C@H]1CSSC[C@@H](C(=O)N[C@H](C(N)=O)[C@@H](C)O)NC(=O)[C@H](CCCNC(=N)N)NC(=O)[C@H](Cc2c[nH]cn2)NC(=O)[C@H](C)NC(=O)CNC(=O)[C@H](Cc2csc3ccccc23)NC(=O)[C@H](CC(=O)O)NC(=O)[C@H](CCC(N)=O)NC(=O)[C@H](Cc2c[nH]c3ccccc23)NC(=O)[C@H](C(C)C)NC1=O` [Cp01-Trp7Bta] (Ac-ICVWQD[Bta]GAHRCT-NH2; disulfide 2-12), the Kd in experiment [1] (setting [3]) was over 16000 nM. Also, the “binding to C3b (result in words)” value in experiment [1] (SPR, listed as W7Bta) was “strongly impaired affinity”.
As for `CC[C@H](C)[C@H](NC(C)=O)C(=O)N[C@H]1CSSC[C@@H](C(=O)N[C@H](C(N)=O)[C@@H](C)O)NC(=O)[C@H](CCCNC(=N)N)NC(=O)[C@H](Cc2c[nH]cn2)NC(=O)[C@H](C)NC(=O)CNC(=O)[C@H](Cc2c[nH]c3ccccc23)NC(=O)[C@H](CC(=O)O)NC(=O)[C@H](CCC(N)=O)NC(=O)[C@H](Cc2c[nH]c3ccccc23)NC(=O)C(C)(C)NC1=O` [Cp01-Val3Aib], the Kd in experiment [1] (setting [3]) was over 2000 nM.
The same measure, in the same setting: in the case of `CC[C@H](C)[C@H](NC(C)=O)C(=O)N[C@H]1CSSC[C@@H](C(=O)N[C@H](C(N)=O)[C@@H](C)O)NC(=O)[C@H](CCCNC(=N)N)NC(=O)[C@H](Cc2c[nH]cn2)NC(=O)[C@H](C)NC(=O)CNC(=O)[C@H](Cc2c[nH]c3ccccc23)NC(=O)[C@H](CC(=O)O)NC(=O)[C@H](CCC(N)=O)NC(=O)[C@H](Cc2c[nH]c3ccccc23)NC(=O)[C@H](C)NC1=O` [Cp01-Val3Ala] it was over 2000 nM.
For `CC[C@H](C)[C@H](NC(C)=O)C(=O)N[C@H]1CSSC[C@@H](C(=O)N[C@H](C(N)=O)[C@@H](C)O)NC(=O)[C@H](CCCNC(=N)N)NC(=O)[C@H](Cc2c[nH]cn2)NC(=O)[C@H](C)NC(=O)CNC(=O)[C@H](Cc2c[nH]c3ccccc23)NC(=O)[C@H](CC(=O)O)NC(=O)[C@H](CCC(N)=O)NC(=O)[C@H](Cc2c[nH]c3ccccc23)NC(=O)[C@H](CC(C)C)NC1=O` [Cp01-Val3Leu] (Ac-ICLWQDWGAHRCT-NH2; disulfide 2-12), in experiment [1] (setting [4]), the “k a, affinity hC3b” value is given as 2.0(0.5) 10^5 M^–1 s^–1 and the “k d, affinity hC3b” value is 11(1) 10^–2 s^–1. For the same molecule, the Kd in experiment [1] (setting [5]) came out at 552 nM.
With `CC[C@H](C)[C@H](NC(C)=O)C(=O)N[C@H]1CSSC[C@@H](C(=O)N[C@H](C(N)=O)[C@@H](C)O)NC(=O)[C@H](CCCNC(=N)N)NC(=O)[C@H](Cc2c[nH]cn2)NC(=O)[C@H](C)NC(=O)CNC(=O)[C@H](Cc2c[nH]c3ccccc23)NC(=O)[C@H](CC(=O)O)NC(=O)[C@H](CCC(N)=O)NC(=O)[C@H](Cc2c[nH]c3ccccc23)NC(=O)[C@H](Cc2ccccc2)NC1=O` [Cp01-Val3Phe], in experiment [1] (setting [3]), the Kd was over 2000 nM.
On the same count and under the same terms, in the case of `CC[C@H](C)[C@H](NC(C)=O)C(=O)N[C@H]1CSSC[C@@H](C(=O)N[C@H](C(N)=O)[C@@H](C)O)NC(=O)[C@H](CCCNC(=N)N)NC(=O)[C@H](Cc2c[nH]cn2)NC(=O)[C@H](C)NC(=O)CNC(=O)[C@H](Cc2c[nH]c3ccccc23)NC(=O)[C@H](CC(=O)O)NC(=O)[C@H](CCC(N)=O)NC(=O)[C@H](Cc2c[nH]c3ccccc23)NC(=O)[C@H](Cc2c[nH]c3ccccc23)NC1=O` [Cp01-Val3Trp] it was over 2000 nM.
For the molecule `CC[C@H](C)[C@H](NC(C)=O)C(=O)N[C@H]1CSSC[C@@H](C(=O)N[C@H](C(N)=O)[C@@H](C)O)NC(=O)[C@H](CCCNC(=N)N)NC(=O)[C@H](Cc2c[nH]cn2)NC(=O)[C@H](C)NC(=O)CNC(=O)[C@H](Cc2c[nH]c3ccccc23)NC(=O)[C@H](CC(=O)O)NC(=O)[C@H](CCC(N)=O)NC(=O)[C@H](Cc2cn(C)c3ccccc23)NC(=O)[C@H]([C@@H](C)CC)NC1=O` [Cp05-Val3Ile] (Ac-ICI[Trp(1-Me)]QDWGAHRCT-NH2; disulfide 2-12), the Kd in experiment [1] (setting [5]) came out at 1.5 nM. In addition, the koff in experiment [1] (SPR) turned out to be 0.002 s⁻¹.
As for `CCC(CC)[C@@H]1NC(=O)[C@@H](NC(=O)[C@@H](NC(=O)[C@H](N)Cc2ccc(O)cc2)[C@@H](C)CC)CSSC[C@@H](C(=O)N(C)[C@H](C(N)=O)[C@@H](C)CC)NC(=O)[C@H](CCCNC(=N)N)NC(=O)[C@H](Cc2c[nH]cn2)NC(=O)[C@H](C)NC(=O)CN(C)C(=O)[C@H](Cc2c[nH]c3ccccc23)NC(=O)[C@H](CC(=O)O)NC(=O)[C@H](CCC(N)=O)NC(=O)[C@H](Cc2cn(C)c3ccccc23)NC1=O` [Cp40-Val3Dea] (H-[dY]IC[Nva(3-Et)][Trp(1-Me)]QDW[Sar]AHRC[NMeI]-NH2; disulfide 3-13), in experiment [1] (setting [4]), the “k a, affinity hC3b” value is on record as 4.3(0.7) 10^5 M^–1 s^–1 and the “k d, affinity hC3b” value is 0.6(0.1) 10^–2 s^–1.
With `CC[C@@H](C)[C@@H]1NC(=O)[C@@H](NC(=O)[C@@H](NC(=O)[C@H](N)Cc2ccc(O)cc2)[C@@H](C)CC)CSSC[C@@H](C(=O)N(C)[C@H](C(N)=O)[C@@H](C)CC)NC(=O)[C@H](CCCNC(=N)N)NC(=O)[C@H](Cc2c[nH]cn2)NC(=O)[C@H](C)NC(=O)CN(C)C(=O)[C@H](Cc2c[nH]c3ccccc23)NC(=O)[C@H](CC(=O)O)NC(=O)[C@H](CCC(N)=O)NC(=O)[C@H](Cc2cn(C)c3ccccc23)NC1=O` [Cp40-Val3aIle] (H-[dY]IC[aIle][Trp(1-Me)]QDW[Sar]AHRC[NMeI]-NH2; disulfide 3-13), in experiment [1] (setting [4]), the “k a, affinity hC3b” value is given as 4.6(0.7) 10^5 M^–1 s^–1 and the “k d, affinity hC3b” value is reported as 0.7(0.3) 10^–2 s^–1. Further, the Kd in experiment [1] (setting [5]) is 15.6 nM.
As for `CC[C@H](C)[C@H](NC(=O)[C@H](N)Cc1ccc(O)cc1)C(=O)N[C@H]1CSSC[C@@H](C(=O)N(C)[C@H](C(N)=O)[C@@H](C)CC)NC(=O)[C@H](CCCNC(=N)N)NC(=O)[C@H](Cc2c[nH]cn2)NC(=O)[C@H](C)NC(=O)CN(C)C(=O)[C@H](Cc2c[nH]c3ccccc23)NC(=O)[C@H](CC(=O)O)NC(=O)[C@H](CCC(N)=O)NC(=O)[C@H](Cc2cn(C)c3ccccc23)NC(=O)[C@H]([C@@H](C)CC)NC1=O` [Cp60] (H-[dY]ICI[Trp(1-Me)]QDW[Sar]AHRC[NMeI]-NH2; disulfide 3-13), the “fold enhancement in binding affinity of Cp60 over Cp40” value in experiment [1] (K D ratio vs Cp40) was > 8 fold and 10 fold. For the same molecule, the “k a, affinity hC3b” value in experiment [1] (setting [4]) is on record as 17.6(1.4) 10^5 M^–1 s^–1. The “k d, affinity hC3b” value was 0.01 10^–2 s^–1 in experiment [1] (setting [4]) and 0.01(0.0) 10^–2 s^–1 in experiment [1] (SPR, 1:1 Langmuir fit, average of 3 independent experiments, SD in brackets, listed as Cp40 Ile). In experiment [1] (SPR, C3b), the “target residence (τ)” value is given as “exceeding 100 min”. Moreover, the koff in experiment [1] (SPR) is 0.0001 s⁻¹. For the same molecule, the “CP inhibition compared with Cp40” value in experiment [2] (CP ELISA, 1% human serum) is recorded as “did not show improved CP inhibition”. Moreover, in experiment [2] (CP ELISA, 5% human serum), the IC50 worked out at 97 nM. Moreover, the “fold enhancement in inhibitory potency of Cp60 over Cp40” value in experiment [2] (IC50 ratio vs Cp40) was under 2 fold.

As a reminder, the IC50 is the concentration needed to halve the response being measured.

These data come from PMC13181761, “New Analogs of the Compstatin Family of Clinical Complement Inhibitors with Low Picomolar Target Affinity” (Journal of Medicinal Chemistry, 2026).
